Results: patent US20060160841A1, “Crystallization via high-shear transformation” (priority 2005, published 2006)

Assay: Particle size D[90] of crystals before and after polymorph transformation
Format: physicochemical

Row | Compound | particle size D[90] (Example 1, small granular crystals after about 24 hours of recirculation through inline homogenization apparatus) | particle size D[90] (Example 2, small granular crystals after about 30 hours of recirculation by pump through outlet and inlet of vessel B) | particle size D[90] (Example 3, N-1 seeded, overhead homogenizer in transient vessel at 55-65° C., continuous transfer, filtered and dried) | particle size D[90] (Example 1, needle-shaped crystals formed in vessel B on adding PG solution to water/PG anti-solvent at 10 to 20° C., before recirculation)
1 | COc1ccc(-n2nc(C(N)=O)c3c2C(=O)N(c2ccc(N4CCCCC4=O)cc2)CC3)cc1 [N-1, 1-(4-methoxyphenyl)-7-oxo-6-(4-(2-oxopiperidin-1-yl)phenyl)-4,5,6,7-tetrahydro-1H-pyrazolo[3,4-c]pyridine-3-carboxamide] | less than 20 μm | less than 20 μm | less than 20 μm | 
2 | COc1ccc(-n2nc(C(N)=O)c3c2C(=O)N(c2ccc(N4CCCCC4=O)cc2)CC3)cc1 [H2-2, 1-(4-methoxyphenyl)-7-oxo-6-(4-(2-oxopiperidin-1-yl)phenyl)-4,5,6,7-tetrahydro-1H-pyrazolo[3,4-c]pyridine-3-carboxamide] |  |  |  | greater than 160 μm
